For 26 molecules, ΔTm results are on record in publication PMC4780864, “Family-wide Structural Analysis of Human Numb-Associated Protein Kinases” (Structure(London, England:1993), 2016).

Holding throughout (assay): biochemical
One experiment addresses T1, GAK (Homo sapiens, UniProt O14976).
T1 construct: catalytic domain-containing construct
T1 sequence (O14976 1-1311): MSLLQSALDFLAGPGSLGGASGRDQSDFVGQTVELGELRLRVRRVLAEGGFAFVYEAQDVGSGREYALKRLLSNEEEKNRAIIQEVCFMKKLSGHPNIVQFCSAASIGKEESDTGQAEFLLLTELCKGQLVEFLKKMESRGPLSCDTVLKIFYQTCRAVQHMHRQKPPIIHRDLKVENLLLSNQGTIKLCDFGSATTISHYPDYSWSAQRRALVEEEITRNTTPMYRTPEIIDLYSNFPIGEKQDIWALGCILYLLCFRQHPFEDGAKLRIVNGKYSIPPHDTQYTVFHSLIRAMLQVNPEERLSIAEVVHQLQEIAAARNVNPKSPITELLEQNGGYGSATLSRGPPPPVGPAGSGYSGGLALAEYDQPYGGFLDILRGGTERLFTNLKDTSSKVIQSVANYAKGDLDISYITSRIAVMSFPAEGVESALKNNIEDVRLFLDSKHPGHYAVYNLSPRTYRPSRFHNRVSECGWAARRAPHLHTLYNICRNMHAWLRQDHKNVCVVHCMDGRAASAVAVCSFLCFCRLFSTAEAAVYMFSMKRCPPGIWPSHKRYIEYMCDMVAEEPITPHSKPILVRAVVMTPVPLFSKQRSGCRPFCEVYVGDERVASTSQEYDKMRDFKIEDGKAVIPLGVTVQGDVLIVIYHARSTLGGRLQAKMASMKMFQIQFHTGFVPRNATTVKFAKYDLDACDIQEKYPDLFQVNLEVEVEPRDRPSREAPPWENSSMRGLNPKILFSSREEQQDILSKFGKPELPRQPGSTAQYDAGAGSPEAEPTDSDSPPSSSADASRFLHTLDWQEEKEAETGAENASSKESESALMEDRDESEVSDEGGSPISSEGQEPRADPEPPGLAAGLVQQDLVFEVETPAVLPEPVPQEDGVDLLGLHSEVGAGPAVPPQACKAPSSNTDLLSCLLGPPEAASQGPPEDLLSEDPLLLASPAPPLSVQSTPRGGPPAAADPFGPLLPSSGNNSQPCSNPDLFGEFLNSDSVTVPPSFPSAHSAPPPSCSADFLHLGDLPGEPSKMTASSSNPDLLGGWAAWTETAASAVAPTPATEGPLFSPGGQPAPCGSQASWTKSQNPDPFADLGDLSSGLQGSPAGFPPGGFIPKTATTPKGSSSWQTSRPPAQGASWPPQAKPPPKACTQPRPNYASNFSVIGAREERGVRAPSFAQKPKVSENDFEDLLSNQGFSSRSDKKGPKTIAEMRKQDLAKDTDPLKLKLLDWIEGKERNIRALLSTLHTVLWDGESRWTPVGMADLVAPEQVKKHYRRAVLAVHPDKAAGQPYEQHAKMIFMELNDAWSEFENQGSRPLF
Details: Thermal shift assay (DSF, SYPRO Orange), 2 uM kinase domain, mean delta Tm of triplicates versus DMSO. Conditions: read-out: GAK. The protocol:
(§1) All measurements were performed in triplicate and mean values were reported for all compounds (Table S1). […] However, NAKs are often omitted from selectivity panels, including commercial screens.

A further experiment concerns the target T2, MPSK1 (Homo sapiens, UniProt O75716).
T2 construct: gene STK16; catalytic domain-containing construct
Details: Thermal shift assay (DSF, SYPRO Orange), 2 uM kinase domain, mean delta Tm of triplicates versus DMSO. Conditions: read-out: MPSK1. The protocol:
as §1

For another experiment, the target named is T3, BIKE (Homo sapiens, UniProt Q9NSY1).
T3 construct: gene BMP2K; catalytic domain-containing construct
Details: Thermal shift assay (DSF, SYPRO Orange), 2 uM kinase domain, mean delta Tm of triplicates versus DMSO. Conditions: read-out: BIKE. The protocol:
as §1

In the next experiment the target is AAK1 (Homo sapiens, UniProt Q2M2I8). Details: kinase domain; Thermal shift assay (DSF, SYPRO Orange), 2 uM kinase domain, mean delta Tm of triplicates versus DMSO. To be noted: read-out: AAK1. The protocol:
as §1

Sequence of AAK1 (Q2M2I8 27-365 limits assumed): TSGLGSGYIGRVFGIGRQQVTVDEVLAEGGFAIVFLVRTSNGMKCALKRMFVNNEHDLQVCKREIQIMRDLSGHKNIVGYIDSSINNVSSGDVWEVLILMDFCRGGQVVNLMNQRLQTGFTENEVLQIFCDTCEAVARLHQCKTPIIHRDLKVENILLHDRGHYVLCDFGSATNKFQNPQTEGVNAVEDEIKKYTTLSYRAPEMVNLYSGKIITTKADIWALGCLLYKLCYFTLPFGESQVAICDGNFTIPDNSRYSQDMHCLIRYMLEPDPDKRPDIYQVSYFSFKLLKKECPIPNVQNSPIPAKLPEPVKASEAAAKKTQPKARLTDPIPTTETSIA
T3 sequence (Q9NSY1 whole entry, the tested form may be a part): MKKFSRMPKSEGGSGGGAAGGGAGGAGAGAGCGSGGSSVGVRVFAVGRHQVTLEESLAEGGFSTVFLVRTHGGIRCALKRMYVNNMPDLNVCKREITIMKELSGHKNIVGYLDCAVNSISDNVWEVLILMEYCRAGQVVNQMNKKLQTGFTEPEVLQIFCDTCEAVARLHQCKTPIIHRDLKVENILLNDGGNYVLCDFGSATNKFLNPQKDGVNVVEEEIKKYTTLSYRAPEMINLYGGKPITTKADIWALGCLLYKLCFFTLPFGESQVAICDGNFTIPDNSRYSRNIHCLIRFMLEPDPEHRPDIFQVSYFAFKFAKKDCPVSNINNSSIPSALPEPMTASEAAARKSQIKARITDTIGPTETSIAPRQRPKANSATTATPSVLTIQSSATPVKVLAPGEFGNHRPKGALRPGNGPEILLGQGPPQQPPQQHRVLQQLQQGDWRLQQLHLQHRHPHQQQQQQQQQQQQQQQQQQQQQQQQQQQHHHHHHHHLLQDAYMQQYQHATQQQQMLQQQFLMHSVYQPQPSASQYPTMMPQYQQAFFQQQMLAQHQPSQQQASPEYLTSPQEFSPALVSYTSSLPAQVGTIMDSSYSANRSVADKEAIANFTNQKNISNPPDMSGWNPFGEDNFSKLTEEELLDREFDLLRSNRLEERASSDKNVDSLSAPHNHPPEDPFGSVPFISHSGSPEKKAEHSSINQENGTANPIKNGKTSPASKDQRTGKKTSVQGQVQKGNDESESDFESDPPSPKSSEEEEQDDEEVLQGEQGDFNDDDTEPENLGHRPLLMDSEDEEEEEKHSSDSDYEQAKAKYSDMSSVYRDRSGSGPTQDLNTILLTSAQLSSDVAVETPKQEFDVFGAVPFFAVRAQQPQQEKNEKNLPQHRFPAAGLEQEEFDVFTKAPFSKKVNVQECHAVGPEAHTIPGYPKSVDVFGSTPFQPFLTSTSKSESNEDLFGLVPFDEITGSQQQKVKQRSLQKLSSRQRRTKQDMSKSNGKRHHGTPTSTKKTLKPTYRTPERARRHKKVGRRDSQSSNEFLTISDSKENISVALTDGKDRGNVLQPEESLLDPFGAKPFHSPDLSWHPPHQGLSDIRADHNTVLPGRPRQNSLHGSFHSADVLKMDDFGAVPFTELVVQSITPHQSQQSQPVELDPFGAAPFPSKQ
T2 sequence (O75716 whole entry, the tested form may be a part): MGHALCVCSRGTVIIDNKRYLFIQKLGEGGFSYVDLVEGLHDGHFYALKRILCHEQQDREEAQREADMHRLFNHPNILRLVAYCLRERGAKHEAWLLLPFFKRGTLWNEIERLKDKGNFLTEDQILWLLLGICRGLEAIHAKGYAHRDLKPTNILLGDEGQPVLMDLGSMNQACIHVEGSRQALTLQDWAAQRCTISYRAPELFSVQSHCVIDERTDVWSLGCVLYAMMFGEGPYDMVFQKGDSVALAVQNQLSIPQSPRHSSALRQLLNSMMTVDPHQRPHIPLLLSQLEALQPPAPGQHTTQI

For the molecule `COc1cc(O)c2c(c1)/C=C/C[C@H](O)[C@H](O)C(=O)/C=C\C[C@H](C)OC2=O` [(5Z)-7-oxozeaenol, (3S,5Z,8S,9S,11E)-3,4,9,10-tetrahydro-8,9,16-trihydroxy-14-methoxy-3-methyl-1H-2-benzoxacyclotetradecin-1,7(8H)-dione], the ΔTm at 12.5 µM on GAK is 16.7 °C; on MPSK1 it was 1.09 °C; at BIKE it was 14 °C; on AAK1, 11.4 °C.
In the same order, the values of `Clc1ccc(Nc2nnc(Cc3ccncc3)c3ccccc23)cc1` [Vatalanib] are 0.0567 °C, 0.513 °C, 0.423 °C and 0.303 °C.
As to `Cc1nc(Nc2n[nH]c3c2CN(C(=O)N[C@H](CN(C)C)c2ccccc2)C3(C)C)c2sccc2n1` [PF-03758309], the ΔTm at 12.5 µM came to 4.73 °C at GAK, 8.65 °C at MPSK1, 10.6 °C on BIKE and 5.65 °C at AAK1.
As to `CNC(=O)c1cc(Oc2ccc(NC(=O)Nc3ccc(Cl)c(C(F)(F)F)c3)cc2)ccn1` [Sorafenib], the ΔTm at 12.5 µM on GAK was found to be 5.42 °C; on MPSK1, 0.873 °C; on BIKE, 0.73 °C; at AAK1, 1.03 °C.
In the same order, the values of `Cc1cnc(Nc2ccc(OCCN3CCCC3)cc2)nc1Nc1cccc(S(=O)(=O)NC(C)(C)C)c1` [Fedratinib] are 8.95 °C, 12.4 °C, 14 °C and 10.6 °C.
On to `COc1cc2c(Oc3ccc(NC(=O)C4(C(=O)Nc5ccc(F)cc5)CC4)cc3F)ccnc2cc1OCCCN1CCOCC1` [Foretinib], for which the ΔTm at 12.5 µM is 2.36 °C at GAK, 1.87 °C on MPSK1, 1.32 °C at BIKE and 1.13 °C at AAK1.
Taken in the same sequence, the figures for `C[C@]12O[C@H](C[C@]1(O)CO)n1c3ccccc3c3c4c(c5c6ccccc6n2c5c31)CNC4=O` [Lestaurtinib] were 10.8 °C, 11.1 °C, 16.5 °C and 13.6 °C.
Taken in the same sequence, the figures for `C#Cc1cccc(Nc2ncnc3cc(OC)c(OCCCCCCC(=O)NO)cc23)c1` [CUDC-101] were 2.77 °C, 0.407 °C, 0.917 °C and 0.713 °C.
`CCc1cnn2c(NCc3ccc[n+]([O-])c3)cc(N3CCCC[C@H]3CCO)nc12` [Dinaciclib]: the ΔTm at 12.5 µM on GAK was -1.13 °C; at MPSK1 it was 1 °C; on BIKE, 0.5 °C; on AAK1, 0.23 °C.
In the same order, the values of `Cc1c(Cn2c(C)nc3c(C(=O)O)cc(N4CCOCC4)cc32)cccc1C(F)(F)F` [GSK2636771] are -0.483 °C, 0.763 °C, 0.39 °C and 0.317 °C.
Taken in the same sequence, the figures for `FC(F)c1nc2ccccc2n1-c1nc(N2CCOCC2)nc(N2CCOCC2)n1` [ZSTK474] were 0.02 °C, 1.24 °C, 0.633 °C and 0.383 °C.
Consider `Cc1ccc(Nc2nccc(N(C)c3ccc4c(C)n(C)nc4c3)n2)cc1S(N)(=O)=O` [Pazopanib], for which the ΔTm at 12.5 µM on GAK was 2.72 °C; at MPSK1, 7.31 °C; at BIKE it was 7.25 °C; at AAK1, 3.85 °C.
Take `COC(=O)c1ccc2c(c1)NC(=O)/C2=C(\Nc1ccc(N(C)C(=O)CN2CCN(C)CC2)cc1)c1ccccc1` [nintedanib]: the ΔTm at 12.5 µM is 0.58 °C at GAK, 6.33 °C on MPSK1, 7.61 °C on BIKE and 1.78 °C on AAK1.
Taken in the same sequence, the figures for `Nc1ncnc2c1c(COc1cccc(Cl)c1)nn2C1CCOCC1` [PF-4800567] were -0.663 °C, 0.933 °C, 0.437 °C and 0.283 °C.
Consider `CCc1cc2c(cc1N1CCC(N3CCOCC3)CC1)C(C)(C)c1[nH]c3cc(C#N)ccc3c1C2=O` [Alectinib], for which the ΔTm at 12.5 µM is 6.7 °C on GAK, 1.29 °C on MPSK1, 0.673 °C on BIKE and 0.613 °C on AAK1.
Taken in the same sequence, the figures for `COc1ccc(Cl)c(Nc2nc3ccccc3nc2NS(=O)(=O)c2cccc(NC(=O)C(C)(C)N)c2)c1` [Pilaralisib] were -0.55 °C, 0.39 °C, 0.99 °C and 0.00667 °C.
In the same order, the values of `CCOc1cc2ncc(C#N)c(Nc3ccc(OCc4ccccn4)c(Cl)c3)c2cc1NC(=O)/C=C/CN(C)C` [Neratinib] are 2.52 °C, 0.927 °C, 1.97 °C and 0.98 °C.
Taken in the same sequence, the figures for `S=C(NCc1ccc2c(c1)OCO2)N1CCN(c2ncnc3c2oc2ccccc23)CC1` [Amuvatinib] were 0.377 °C, 0.233 °C, 1.16 °C and 1.93 °C.
Turning to `Cn1cnc2c(F)c(Nc3ccc(Br)cc3Cl)c(C(=O)NOCCO)cc21` [Selumetinib], the ΔTm at 12.5 µM on GAK is -0.847 °C; on MPSK1 it was 0.797 °C; at BIKE, 0.227 °C; at AAK1 it was 0.343 °C.
For `CNC(=O)c1cc(Oc2ccc(NC(=O)Nc3cc(C(C)(C)C)nn3-c3ccc4ncccc4c3)c(F)c2)ccn1` [Rebastinib], the ΔTm at 12.5 µM on GAK was found to be 9.94 °C; on MPSK1, 0.907 °C; on BIKE, 0.707 °C; at AAK1, 0.473 °C.
Taken in the same sequence, the figures for `O=C(Nc1ccc2[nH]nc(-c3ccncc3)c2c1)[C@@H]1CCN(CC(=O)N2CCN(c3ccc(-c4ncccn4)cc3)CC2)C1` [SCH772984] were 0.343 °C, 0.0567 °C, 0.9 °C and 0.0767 °C.
In the same order, the values of `Cc1c(NC(=O)OC[C@@H]2COCCN2)cn2ncnc(Nc3ccc4c(cnn4Cc4cccc(F)c4)c3)c12` [BMS-599626] are 2.18 °C, 0.293 °C, 4.37 °C and 2.62 °C.
Taken in the same sequence, the figures for `Cc1cc(Nc2cc(CN3CCOCC3)c3nc(C)c(Cc4ccc(Cl)cc4F)n3n2)n[nH]1` [Gandotinib] were 0.333 °C, 9.07 °C, 10.2 °C and 6.86 °C.
`COc1cc2nccc(Oc3ccc(NC(=O)Nc4cc(C)on4)c(Cl)c3)c2cc1OC` [Tivozanib]: the ΔTm at 12.5 µM came to 6.98 °C at GAK, 1.4 °C on MPSK1, 3.87 °C on BIKE and 3.15 °C at AAK1.
In the same order, the values of `COc1cc2nccc(Oc3ccc(NC(=O)NC4CC4)c(Cl)c3)c2cc1C(N)=O` [Lenvatinib] are 2.03 °C, 1.5 °C, 2.49 °C and 2.07 °C.
As for `CS(=O)(=O)CCNCc1ccc(-c2ccc3ncnc(Nc4ccc(OCc5cccc(F)c5)c(Cl)c4)c3c2)o1` [Lapatinib], the ΔTm at 12.5 µM on GAK worked out at 1.67 °C; on MPSK1 it was 1.16 °C; on BIKE it was 1.13 °C; at AAK1, 1.7 °C.
